Earlier results, collected in US11793802B2, “Treatment of acute myeloid leukemia (AML) with venetoclax failure” (Sumitomo Pharma Oncology, Inc., priority 2019, dated 2023).

Assays:
[1] = system: hematological cancers, including AML; conditions: patients treated with venetoclax

CN1CC[C@H](c2c(OP(=O)(O)O)cc(O)c3c(=O)cc(-c4ccccc4Cl)oc23)[C@H](O)C1 [Formula (I-b)]
oral bioavailability: orally bioavailable

Nc1ncn([C@@H]2O[C@H](CO)[C@@H](O)[C@H]2O)c(=O)n1 [azacitidine]
effect on MCL-1 protein levels in blasts (MCL-1 protein): reduce MCL-1 protein levels

CC1(C)CCC(CN2CCN(c3ccc(C(=O)NS(=O)(=O)c4ccc(NCC5CCOCC5)c([N+](=O)[O-])c4)c(Oc4cnc5[nH]ccc5c4)c3)CC2)=C(c2ccc(Cl)cc2)C1 [venetoclax]
patients demonstrated complete remission [1]: 8-20% | patients showed no response [1]: 20-30% | patients showed disease progression ([1]; after 18 months): ~50%
